Laboratory results taken from article PMC8178536 (Journal of Ethnopharmacology, 2021).
Read-outs that look alike come from different tables or passages of the source.

Experiments:
[1] = system: SARS-CoV-2 S protein-pseudoviruses, 293T-ACE2 cells; assay: microbe, parasite or virus in culture; type: cell-based
[2] = target: ACE2-RBD interaction (human ACE2 / SARS-CoV-2 S protein RBD) (Severe acute respiratory syndrome coronavirus 2, UniProt P0DTC2); assay: biochemical; type: binding, human; SARS-CoV-2
[3] = target: SARS-CoV-2 RBD (Severe acute respiratory syndrome coronavirus 2, UniProt P0DTC2); assay: biochemical; type: binding
[4] = system: SARS-CoV-2 S protein-pseudoviruses, Calu-3 cells; type: cell-based
[5] = target: ACE2 (Homo sapiens, UniProt Q9BYF1); type: binding; settings: SPR, two-fold serial dilutions
[6] = Severe acute respiratory syndrome coronavirus 2, 293T/ACE2, read-out: IC50, infectivity of S protein-pseudoviruses to 293T-ACE2 cells

Chain of ACE2 (Q9BYF1 18-740): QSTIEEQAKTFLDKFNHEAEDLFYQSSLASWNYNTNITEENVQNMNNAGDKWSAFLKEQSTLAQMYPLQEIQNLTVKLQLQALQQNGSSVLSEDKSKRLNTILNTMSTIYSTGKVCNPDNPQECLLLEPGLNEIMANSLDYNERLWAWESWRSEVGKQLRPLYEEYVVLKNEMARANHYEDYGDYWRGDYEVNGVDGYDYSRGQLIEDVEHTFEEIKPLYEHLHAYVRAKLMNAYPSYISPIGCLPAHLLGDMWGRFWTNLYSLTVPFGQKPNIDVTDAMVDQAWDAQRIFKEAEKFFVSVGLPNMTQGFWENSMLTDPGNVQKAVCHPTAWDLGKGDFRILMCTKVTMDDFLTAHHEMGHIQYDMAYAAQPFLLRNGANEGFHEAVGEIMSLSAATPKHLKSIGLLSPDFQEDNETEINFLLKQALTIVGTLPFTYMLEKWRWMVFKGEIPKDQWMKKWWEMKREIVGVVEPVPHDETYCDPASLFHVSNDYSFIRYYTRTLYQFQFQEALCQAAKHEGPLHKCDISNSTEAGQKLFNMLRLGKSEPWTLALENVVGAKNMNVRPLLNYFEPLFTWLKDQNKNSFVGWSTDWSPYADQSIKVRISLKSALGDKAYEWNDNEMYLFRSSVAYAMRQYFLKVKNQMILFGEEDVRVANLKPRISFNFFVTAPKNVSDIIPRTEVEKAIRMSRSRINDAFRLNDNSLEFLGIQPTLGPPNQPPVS

Row | Compound | IC50 ([1]; read-out: IC50, entry of S protein-pseudoviruses into 293T-ACE2 cells) [nM] | IC50 [2] [nM] | Kd [3] [nM] | IC50 [1, 6] [nM] | infectivity of SARS-CoV-2 S protein-pseudoviruses to Calu-3 cells [4] | binding to immobilized ACE2 [5]
1 | soluble recombinant human ACE2 | 69.6 | – | – | – | – | –
2 | O=C(O)c1cc(O)c2cc(O)ccc2n1 [Compound 1, 4,6-dihydroxyquinoline-2-carboxylic acid] | – | 580 | 600 | 1090 | – | –
3 | O=C(O)c1cc(O)c2ccccc2n1 [Compound 2, 4-hydroxyquinoline-2-carboxylic acid] | – | 70 | 5280 | 440 | abolished the infectivity | low or no binding
4 | COc1ccc2nc(C(=O)O)cc(O)c2c1 [Compound 3, 4-hydroxy-6-methoxyquinoline-2-carboxylic acid] | – | 150 | 5370 | 750 | – | –
